We go through 1 compound from patent US20170050045A1, “PHOTODYNAMIC THERAPY USING IN SITU NONLINEAR PHOTON UPCONVERSION OF NIR LIGHT BY BIOLOGICAL MEDIUM” (The Research Foundation for The State University Of New York, priority 2014, published 2017).

Data set [1] concerns HeLa cells. Kind of data set: PDT phototoxicity in cultured HeLa cells, CARS/FWM/TPA vs TPA excitation (calcein AM / propidium iodide staining). As to conditions: 90 μM, 90 min incubation, average of four series. The format is cell-based. The text has this:
Materials and Methods. Optical setup. The experimental setup used for the present nonlinear optical excitation of PDT utilized a custom made laser scanning microscopy system with two excitation NIR laser sources. A picosecond Nd:YVO4 laser (picoTRAIN IC-10000/532-4000, HighQ Laser) with pulse width ˜5 ps and a repetition rate of 76 MHz was used as the source for the Stokes wave ωs at the fundamental output of 1064 nm as well as for synchronous pumping of a tunable optical parametric oscillator (OPO, Levante Emerald, APE) by using its 532 second harmonic output with a pulse width of ˜4 ps. […] When the beating frequency ωp-ωs is tuned to be resonant with a vibrational mode of a selected molecular bond, the CARS signal together with its nonresonant electronic FWM background signal is detected at the anti-Stokes frequency of ωas=2ωp−ωs. Using our instrument setup, a sample can be excited and the imaged in the CARS/FWM mode in the vibrational frequency range of 900-3300 cm^−1 and simultaneously at 670-990 nm in the TPEF (two-photon excited fluorescence) or/and in the SHG mode. […] Thus, this experimental setup enables concurrent operation of the system in the PDT excitation mode as well as in the imaging mode (CARS/FWM/fluorescence) which is highly suitable for PDT process monitoring. […]

Data set [2] relates to HeLa cells. The data set can be described thus: PDT phototoxicity in HeLa cells grown on collagen substrates, SHG excitation at 818 nm (detached and PI positive cells counted). It is filed as cell-based. As for the experimental part:
To verify the efficiency of the different nonlinear-optical conversion mechanisms for PDT excitation, cell cultured samples were used in different lay-outs permitting separation of the relative contribution of one specific nonlinear process. All experiments were made in a Petri dish through the bottom optical glass window in an inverted microscopy configuration. When cells were grown directly on the optical glass window, the pump and Stokes waves were synchronized with a zero delay and the beams were focused into the cell culture treated with the photosensitizer, CARS/FWM signals were generated by the natural intercellular biomolecules of proteins or lipids. In this case, the CARS/FWM conversion was also supplemented by the TPA process directly in the photosensitizer and a combination of CARS/FWM/TPA was obtained (see diagram 1 in FIG. 3a). To separate the TPA contribution, a pulse delay of ˜5 ps between the pump and the Stokes waves was introduced which disabled the CARS/FWM process. Therefore, with the pulse delay t, TPA of photosensitizer produced the dominant PDT effect (see diagram 2 in FIG. 3a). We used another lay-out in which cells were grown on a thin layer of polymerized collagen gel (ordered collagen structures). When the pump and Stokes laser beams were focused in collagen and had zero delay, SHG/FWM/SFG (sum frequency generation) nonlinear interactions occurred in the collagen layer (see diagram 3 in FIG. 3a). To selectively look at the SHG contribution, a pulse delay was introduced which disabled the FWM and SFG processes. The second harmonic signal generated by the collagen structure propagated to reach the cells treated with the photosensitizer, and efficiently absorbed by it to excite PDT (see diagram 4 in FIG. 3a). The dose of laser radiation delivered to the sample was estimated to be ˜60 J/cm^2 at 812.6 or 818.8 nm; ˜30 J/cm^2 at 1064 nm per scan, for CARS/FWM in proteins/lipids cellular environmental medium; and ˜60 J/cm^2 for SHG in polymerized collagen gels.
Cell culture, drug treatment and PDT design. The process of PDT was modeled on the cultured HeLa cells. FIG. 3b diagrammatically illustrates the PDT procedure. HeLa cells were grown in Advanced DMEM (Life Technologies), supplemented with 2.5% fetal calf serum (FBS) (Sigma, St. Louis, Mo.), 1% glutamax (Life Technologies), 1% Antibiotic Antimycotic Solution (Sigma) at 37° C. in a humidified atmosphere containing 5% CO2. Prior to the incorporation of the photosensitizer and PDT experiments, cells were placed into glass-bottom dishes (MatTek, Ashland, Mass.). In the experiments involving SHG, the glass-bottom dishes were coated either with monomeric collagen (Sigma) or with collagen gels polymerized on the glass window. A stock solution of Chlorin-e6 was prepared in DMSO. The PDT process in the cultured cells was initiated by nonlinear optical excitation of the Chlorin-e6 photosensitizer, which was diluted to a final concentration of 90 μM in Advanced DMEM containing 15% FBS and 0.005% Tween 80. Cells were incubated with the drug for ninety minutes, thoroughly washed to remove unincorporated drug and subsequently used for optical exposure for PDT treatment.
During the laser irradiation, cells were maintained at 37° C. and 5% CO2 in a Live-Cell incubator (Pathology Devices, Westminster, Md.) mounted on the microscope stage. Following the laser irradiation, the cells were incubated for 4 hours in a fresh regular medium at 37° C. […]

In the case of `C=Cc1c(C)c2cc3nc(c(CC(=O)O)c4[nH]c(cc5nc(cc1[nH]2)C(C)=C5CC)c(C)c4C(=O)O)[C@@H](CCC(=O)O)[C@@H]3C` [Chlorin e6], the “necrotic cells (PI positive cells)” value is on record as 40% in data set [1] (CARS/FWM/TPA mode (zero pulse delay), 818 nm pump + 1064 nm Stokes, 70 scans, ~6300 J/cm^2) and 20% in data set [1] (TPA mode (delayed pulses), same number of scans (70)). For the same compound, the “difference in phototoxicity between polymerized and monomeric collagen groups” value in data set [2] (50 scans, 818 nm, 3000 J/cm^2) was “tenfold”. The “detachment from the substrate, or positive PI staining of cells” value in data set [2] (cells on fibrillar (polymerized) collagen, 50 scans by 818 nm pulsed laser, 3000 J/cm^2, 90 μM) is on record as “up to 50%”. For the same compound, the “detached and PI positive cells” value in data set [2] (cells on fibrillar collagen substrates, 75 scans, 818 nm, ~4500/cm^2, 90 μM) is listed as about 70%. In data set [2] (cells on monomeric collagen, 50 scans by 818 nm pulsed laser, 3000 J/cm^2, 90 μM), the “cytotoxicity, by counting of the detached and PI positive cells” value was “less than 5%”. Moreover, in data set [2] (cells on monomeric collagen, 75 scans, 818 nm, ~4500/cm^2, 90 μM), the “cells either detached or displayed PI stain” value is given as about 35%.
